Measurements taken from US20250179047A1, “5-[7-(3,4-DIHYDRO-1H-ISOQUINOLINE-2-CARBONYL)-1,2,3,4 TETRAHYDROISOQUINOLIN-6-YL]-1H-PYRROLE-3-CARBOXAMIDE DERIVATIVES, PHARMACEUTICAL COMPOSITIONS CONTAINING THEM AND THEIR USES AS PRO-APOPTOTIC AGENTS” (LES LABORATOIRES SERVIER, priority 2022, published 2025).

Tests used:
[1] = test system: KMS-12-PE Bcl-2 WT; assay: In vitro cytotoxicity CellTiter-Glo 48 h, KMS-12-PE Bcl-2 WT; format: cell-based; details: Homo sapiens, KMS-12-PE, C50 = concentration needed to reach 50% of the cellular viability
Summary of the method: (§1)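 Viability measured by CellTiter-Glo luminescence after 48 h compound exposure (11-point curve, 37 °C, 5% CO2). Cells: KMS-12-PE transduced with wild-type or G101V-mutant Bcl-2, FACS-sorted for TagRFP. Reported C50 = concentration reaching 50% cellular viability.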

[2] = target: BCLXL WT (Homo sapiens (Human), UniProt Q07817); assay: TR-FRET competitive binding assay, BCLXL WT; details: for Ki: BCLXL WT, Ki determined from IC50, read-out: TR_FRET EKI BclxL; for TR_FRET EKI BCLxL/WT selectivty ratio: ratio Ki BCLxL / Ki BCL2 WT
BCLXL WT, sequence (Q07817 other isoform, or with tags, fused parts or gaps): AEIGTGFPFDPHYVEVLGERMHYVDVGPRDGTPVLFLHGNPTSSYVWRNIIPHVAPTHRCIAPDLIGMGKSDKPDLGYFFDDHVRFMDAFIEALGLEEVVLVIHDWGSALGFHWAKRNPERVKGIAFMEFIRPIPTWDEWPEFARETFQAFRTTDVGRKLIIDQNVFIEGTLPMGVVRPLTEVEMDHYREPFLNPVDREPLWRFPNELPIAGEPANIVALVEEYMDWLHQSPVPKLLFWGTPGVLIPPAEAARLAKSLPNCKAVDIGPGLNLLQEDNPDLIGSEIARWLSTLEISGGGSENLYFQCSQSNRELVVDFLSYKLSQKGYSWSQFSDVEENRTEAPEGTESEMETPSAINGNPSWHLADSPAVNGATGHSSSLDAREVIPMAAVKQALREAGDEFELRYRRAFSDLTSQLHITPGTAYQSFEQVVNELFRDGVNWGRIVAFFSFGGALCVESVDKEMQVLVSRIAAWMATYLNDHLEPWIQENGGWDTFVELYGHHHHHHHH
Summary of the method: (§2)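 Terbium-labelled N-terminal Halo-fusion BCL2 or BCLXL (E. coli), 0.5 nM, competed against fluorescein-labelled PUMA peptide (2 or 20 nM) for 2 h at 23° C in 50 mM Hepes pH 7.5, 150 mM NaCl, 5% DMSO. TR-FRET 520/495 nm ratio gave IC50 by four-parameter fit; Ki derived from IC50.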

[3] = target: BCL2 WT (Homo sapiens (Human), UniProt P10415); assay: TR-FRET competitive binding assay, BCL2 WT; details: Ki determined from IC50, read-out: TR_FRET EKI_Bcl2 WT
Summary of the method: as §2

[4] = test system: KMS-12-PE Bcl-2 G101V; assay: In vitro cytotoxicity CellTiter-Glo 48 h, KMS-12-PE Bcl-2 G101V; format: cell-based; details: for Ratio (G101V/WT): C50 KMS-12-PE Bcl-2 G101V over C50 KMS-12-PE Bcl-2 WT; for IC50: Homo sapiens, KMS-12-PE, 48 h, CellTiter-Glo, C50 = concentration needed to reach 50% of the cellular viability
Summary of the method: as §1

[5] = target: BCL2 G101V (Homo sapiens, UniProt P10415, G101V); assay: TR-FRET competitive binding assay, BCL2 G101V; details: BCL2 G101V; Ki determined from IC50; read-out: TR_FRET EKI_Bcl2 G101V
Summary of the method: as §2

[6] = test system: BCL2 G101V; assay: TR-FRET competitive binding assay, BCL2 G101V; set-up: species or system human; details: ratio Ki BCL2 G101V / Ki BCL2 WT
Summary of the method: as §2

[7] = target: BCL2 D103Y (Homo sapiens, UniProt P10415, D103Y); assay: TR-FRET competitive binding assay, BCL2 D103Y; details: Ki determined from IC50, read-out: TR_FRET EKI_Bcl2 D103Y
Summary of the method: as §2

| Ki [2] [nM] | TR_FRET EKI BCLxL/WT selectivty ratio [2] | Ki [3] [nM] | Ki [5] [nM] | TR_FRET EKI G101V/WT selectivty ratio [6] | Ki [7] [nM] | Structure (SMILES) | IC50 [1] [µM] | Ratio (G101V/WT) [4] | IC50 [4] [µM] |
| --- | --- | --- | --- | --- | --- | --- | --- | --- | --- |
| 1.9 | 19.4 | 0.1 | 1.1 | 11.2 | 0.23 | Cc1c(N(C(=O)c2cc(-c3cc4c(cc3C(=O)N3Cc5ccccc5C[C@H]3CN3CCCCC3)CN(C(=O)Cc3ccc(COCC5CCOCC5)cc3)CC4)n(C)c2C)c2ccc(O)cc2)cc(C#N)n1C [Example 149, N-(5-cyano-1,2-dimethyl-1H-pyrrol-3-yl)-N-(4-hydroxyphenyl)-1,2-dimethyl-5-{2-[2-(4-{[(oxan-4-yl)methoxy]methyl}phenyl)acetyl]-7-[(3S)-3-[(piperidin-1-yl)methyl]-1,2,3,4-tetrahydroisoquinoline-2-carbonyl]-1,2,3,4-tetrahydroisoquinolin-6-yl}-1H-pyrrole-3-carboxamide] | 0.0239 | 10.921 | 0.261 |
| 2.6 | 70.3 | 0.04 | 0.2 | 6.2 | 0.08 | Cc1c(N(C(=O)c2cc(-c3cc4c(cc3C(=O)N3Cc5ccccc5C[C@H]3CN3CCCCC3)CN(C(=O)Cc3ccc(OCCN5CCO[C@@H](C)C5)cc3)CC4)n(C)c2C)c2ccc(O)cc2)cc(C#N)n1C [Example 150, N-(5-cyano-1,2-dimethyl-1H-pyrrol-3-yl)-N-(4-hydroxyphenyl)-1,2-dimethyl-5-[2-(2-{4-[2-((2S)-2-methylmorpholin-4-yl)ethoxy]phenyl}acetyl)-7-[(3S)-3-[(piperidin-1-yl)methyl]-1,2,3,4-tetrahydroisoquinoline-2-carbonyl]-1,2,3,4-tetrahydroisoquinolin-6-yl]-1H-pyrrole-3-carboxamide] | 0.011 | 5.2636 | 0.0579 |
| 2.7 | 57.4 | 0.05 | 0.3 | 6.4 | 0.1 | Cc1c(N(C(=O)c2cc(-c3cc4c(cc3C(=O)N3Cc5ccccc5C[C@H]3CN3CCCCC3)CN(C(=O)Cc3ccc(OCCN5CCO[C@H](C)C5)cc3)CC4)n(C)c2C)c2ccc(O)cc2)cc(C#N)n1C [Example 151, N-(5-cyano-1,2-dimethyl-1H-pyrrol-3-yl)-N-(4-hydroxyphenyl)-1,2-dimethyl-5-[2-(2-{4-[2-((2R)-2-methylmorpholin-4-yl)ethoxy]phenyl}acetyl)-7-[(3S)-3-[(piperidin-1-yl)methyl]-1,2,3,4-tetrahydroisoquinoline-2-carbonyl]-1,2,3,4-tetrahydroisoquinolin-6-yl]-1H-pyrrole-3-carboxamide] | 0.0105 | 6.0476 | 0.0635 |
| 5.2 | 41.6 | 0.13 | 0.4 | 3.5 | 0.38 | Cc1c(N(C(=O)c2cc(-c3cc4c(cc3C(=O)N3Cc5ccccc5C[C@H]3CN3CCC[C@H](C)C3)CN(C(=O)Cc3ccc(OCCN5CCOCC5)cc3)CC4)n(C)c2C)c2ccc(O)cc2)cc(C#N)n1C [Example 153, N-(5-cyano-1,2-dimethyl-pyrrol-3-yl)-N-(4-hydroxyphenyl)-1,2-dimethyl-5-[7-[(3S)-3-[[(3S)-3-methyl-1-piperidyl]methyl]-3,4-dihydro-1H-isoquinoline-2-carbonyl]-2-[2-[4-(2-morpholinoethoxy)phenyl]acetyl]-3,4-dihydro-1H-isoquinolin-6-yl]pyrrole-3-carboxamide] | 0.0095 | 5.3741 | 0.051 |
| 4.1 | 110.8 | 0.04 | 0.3 | 8.4 | 0.14 | Cc1c(N(C(=O)c2cc(-c3cc4c(cc3C(=O)N3Cc5ccccc5C[C@H]3CN3CCCC3)CN(C(=O)Cc3ccc(OCCN5CCN(CC(F)F)CC5)cc3)CC4)n(C)c2C)c2ccc(O)cc2)cc(C#N)n1C [Example 154, N-(5-cyano-1,2-dimethylpyrrol-3-yl)-5-{2-[2-(4-{2-[4-(2,2-difluoroethyl)piperazin-1-yl]ethoxy}phenyl)acetyl]-7-{[(3S)-3-(pyrrolidin-1-ylmethyl)-3,4-dihydro-1H-isoquinolin-2-yl]carbonyl}-3,4-dihydro-1H-isoquinolin-6-yl}-N-(4-hydroxyphenyl)-1,2-dimethylpyrrole-3-carboxamide] | 0.067 | 3.9552 | 0.265 |
| 1.7 | 39.5 | 0.04 | 0.4 | 8.8 | 0.11 | CCN(C[C@@H]1Cc2ccccc2CN1C(=O)c1cc2c(cc1-c1cc(C(=O)N(c3ccc(O)cc3)c3cc(C#N)n(C)c3C)c(C)n1C)CCN(C(=O)Cc1ccc(OCCN3CCOCC3)cc1F)C2)C(C)C [Example 155, N-(5-cyano-1,2-dimethylpyrrol-3-yl)-5-(7-{[(3S)-3-{[ethyl(isopropyl)amino]methyl}-3,4-dihydro-1H-isoquinolin-2-yl]carbonyl}-2-(2-{2-fluoro-4-[2-(morpholin-4-yl)ethoxy]phenyl}acetyl)-3,4-dihydro-1H-isoquinolin-6-yl)-N-(4-hydroxyphenyl)-1,2-dimethylpyrrole-3-carboxamide] | 0.0105 | 8.0857 | 0.0849 |
| 2.7 | 50.9 | 0.05 | 0.2 | 4.0 | 0.1 | Cc1c(N(C(=O)c2cc(-c3cc4c(cc3C(=O)N3Cc5ccccc5C[C@H]3CN3CC[C@@H](C)C3)CN(C(=O)Cc3ccc(OCCN5CCOCC5)cc3F)CC4)n(C)c2C)c2ccc(O)cc2)cc(C#N)n1C [Example 156, N-(5-cyano-1,2-dimethylpyrrol-3-yl)-5-[2-(2-{2-fluoro-4-[2-(morpholin-4-yl)ethoxy]phenyl}acetyl)-7-{[(3S)-3-{[(3R)-3-methylpyrrolidin-1-yl]methyl}-3,4-dihydro-1H-isoquinolin-2-yl]carbonyl}-3,4-dihydro-1H-isoquinolin-6-yl]-N-(4-hydroxyphenyl)-1,2-dimethylpyrrole-3-carboxamide] | 0.0154 | 5.2662 | 0.0811 |
| 2 | 45.5 | 0.04 | 0.3 | 7.7 | 0.09 | Cc1c(N(C(=O)c2cc(-c3cc4c(cc3C(=O)N3Cc5ccccc5C[C@H]3CN3CC[C@H](C)C3)CN(C(=O)Cc3ccc(OCCN5CCOCC5)cc3F)CC4)n(C)c2C)c2ccc(O)cc2)cc(C#N)n1C [Example 157, N-(5-cyano-1,2-dimethylpyrrol-3-yl)-5-[2-(2-{2-fluoro-4-[2-(morpholin-4-yl)ethoxy]phenyl}acetyl)-7-{[(3S)-3-{[(3S)-3-methylpyrrolidin-1-yl]methyl}-3,4-dihydro-1H-isoquinolin-2-yl]carbonyl}-3,4-dihydro-1H-isoquinolin-6-yl]-N-(4-hydroxyphenyl)-1,2-dimethylpyrrole-3-carboxamide] | 0.0171 | 5.5848 | 0.0955 |
| 5.4 | 54.0 | 0.1 | 0.9 | 9.4 | 0.47 | Cc1c(C(=O)N(c2ccc(O)cc2)c2cc(C#N)n(C(F)F)c2C)cc(-c2cc3c(cc2C(=O)N2Cc4ccccc4C[C@H]2CN2CCCCC2)CN(C(=O)Cc2ccc(OCCN4CCC(F)CC4)cc2F)CC3)n1C [Example 158] | 0.0068 | 8.0412 | 0.0546 |
| 3.7 | 69.8 | 0.05 | 0.3 | 5.1 | 0.13 | Cc1c(C(=O)N(c2ccc(O)cc2)c2cc(C#N)n(C(F)F)c2C)cc(-c2cc3c(cc2C(=O)N2Cc4ccccc4C[C@H]2CN2CCCCC2)CN(C(=O)Cc2ccc(OCCN4CCN(CCF)CC4)cc2F)CC3)n1C [Example 159, N-[5-cyano-1-(difluoromethyl)-2-methylpyrrol-3-yl]-5-{2-[2-(2-fluoro-4-{2-[4-(2-fluoroethyl)piperazin-1-yl]ethoxy}phenyl)acetyl]-7-{[(3S)-3-(piperidin-1-ylmethyl)-3,4-dihydro-1H-isoquinolin-2-yl]carbonyl}-3,4-dihydro-1H-isoquinolin-6-yl}-N-(4-hydroxyphenyl)-1,2-dimethylpyrrole-3-carboxamide] | 0.0079 | 4.9873 | 0.0392 |
